# Data reported in patent US20240199546A1, “INHIBITORS OF SOLUTE CARRIER FAMILY 6A MEMBER 19 (SLC6A19) AND METHODS OF USE THEREOF” (Maze Therapeutics, Inc., priority 2022, published 2024).
# Biological target: T1, human SLC6A19 and TMEM27 (Homo sapiens, UniProt Q695T7)
# T1 construct: expressed in transfected cells
# T1 sequence (Q695T7 1-634): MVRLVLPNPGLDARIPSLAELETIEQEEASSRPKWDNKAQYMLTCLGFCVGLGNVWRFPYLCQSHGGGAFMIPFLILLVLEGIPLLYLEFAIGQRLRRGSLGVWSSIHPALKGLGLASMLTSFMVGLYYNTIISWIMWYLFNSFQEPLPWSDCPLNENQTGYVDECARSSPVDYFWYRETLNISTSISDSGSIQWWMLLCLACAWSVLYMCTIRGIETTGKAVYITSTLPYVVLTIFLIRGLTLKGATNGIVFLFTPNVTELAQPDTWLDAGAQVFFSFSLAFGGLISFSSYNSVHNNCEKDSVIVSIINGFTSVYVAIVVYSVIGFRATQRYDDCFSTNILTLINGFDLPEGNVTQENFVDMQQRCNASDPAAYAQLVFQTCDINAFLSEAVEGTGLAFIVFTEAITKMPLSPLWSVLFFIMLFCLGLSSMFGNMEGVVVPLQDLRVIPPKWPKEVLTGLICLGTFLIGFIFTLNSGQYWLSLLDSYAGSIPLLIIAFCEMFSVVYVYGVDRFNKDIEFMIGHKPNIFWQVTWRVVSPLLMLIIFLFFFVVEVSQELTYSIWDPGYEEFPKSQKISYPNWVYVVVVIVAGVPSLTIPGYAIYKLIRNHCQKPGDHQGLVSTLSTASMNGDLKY
# T1 sequence (Q9HBJ8 15-222 partner): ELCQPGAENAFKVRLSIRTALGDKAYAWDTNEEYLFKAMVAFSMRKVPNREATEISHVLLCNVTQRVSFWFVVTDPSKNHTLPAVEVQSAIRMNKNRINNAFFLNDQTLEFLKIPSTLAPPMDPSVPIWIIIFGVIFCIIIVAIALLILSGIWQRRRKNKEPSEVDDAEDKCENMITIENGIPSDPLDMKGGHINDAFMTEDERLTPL
# Experiment: Radiolabelled (3H) leucine uptake in CHO cells with doxycycline-inducible expression of human SLC6A19 and TMEM27 (Example B-1)
# Assay type: cell-based
# Settings: CHO cells with doxycycline-inducible expression of human SLC6A19 and TMEM27, read-out: SLC6A19_Radioligand Uptake Assay IC50
# Outline: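 CHO cells were induced with doxycycline for 18 h at 37 °C, washed in HBSS, then exposed to compounds for 1 h: 8-point, 3-fold dilutions in duplicate, 0.5% DMSO final. Uptake measured by scintillation counting after 2 h shaking. Activity normalized with positive control as 0% and DMSO as 100%.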
row,IC50 [nM],Structure (SMILES)
1,391,"O=C(CO)NCc1cc2cc(Cl)c(OCc3cscn3)cc2[nH]1 [Compound 244, N-((5-chloro-6-(thiazol-4-ylmethoxy)-1H-indol-2-yl)methyl)-2-hydroxyacetamide]"
2,505,"CCOCCOc1cc2[nH]c(CNC(C)=O)cc2cc1Cl [Compound 459, N-((5-chloro-6-(2-ethoxyethoxy)-1H-indol-2-yl)methyl)acetamide]"
3,3730,"CC1(C(=O)NCc2cc3cc(Cl)c(OCc4sncc4Cl)cc3[nH]2)CC1 [Compound 325, N-((5-chloro-6-((4-chloroisothiazol-5-yl)methoxy)-1H-indol-2-yl)methyl)-1-methylcyclopropane-1-carboxamide]"
4,206,"COCCOc1cc2[nH]c(CNC(=O)C3(C)CC3)cc2cc1Cl [Compound 333, N-((5-chloro-6-(2-methoxyethoxy)-1H-indol-2-yl)methyl)-1-methylcyclopropane-1-carboxamide]"
5,237,"Cc1cc(CNc2cc3[nH]c(CNC(=O)C4(C)CC4)cc3cc2Cl)no1 [Compound 451, N-((5-chloro-6-(((5-methylisoxazol-3-yl)methyl)amino)-1H-indol-2-yl)methyl)-1-methylcyclopropane-1-carboxamide]"
6,214,"O=C(CC(F)(F)F)NCc1cc2cc(Cl)c(OCc3cscn3)cc2[nH]1 [Compound 554, N-((5-chloro-6-(thiazol-4-ylmethoxy)-1H-indol-2-yl)methyl)-3,3,3-trifluoropropanamide]"
7,1470,"Cc1cnc(COc2cc3[nH]c(CNC(=O)C4(C)CC4)cc3cc2F)o1 [Compound 73, N-((5-fluoro-6-((5-methyloxazol-2-yl)methoxy)-1H-indol-2-yl)methyl)-1-methylcyclopropane-1-carboxamide]"
8,181,"CC1(C(=O)NCc2cc3cc(Cl)c(OCC4CC4)cc3[nH]2)CC1 [Compound 633, N-((5-chloro-6-(cyclopropylmethoxy)-1H-indol-2-yl)methyl)-1-methylcyclopropane-1-carboxamide]"
9,> 5480,"O=C(NCc1cc2cc(Cl)c(OCc3cscn3)cc2[nH]1)N1CC(CO)C1 [Compound 368, N-((5-chloro-6-(thiazol-4-ylmethoxy)-1H-indol-2-yl)methyl)-3-(hydroxymethyl)azetidine-1-carboxamide]"
10,217,"CC(=O)NCc1cc2cc(Cl)c(OCc3cocn3)cc2[nH]1 [Compound 206, N-((5-chloro-6-(oxazol-4-ylmethoxy)-1H-indol-2-yl)methyl)acetamide]"
11,260,"COc1cc2cc(CNC(=O)C3(C)CC3)[nH]c2cc1CCn1cccn1 [Compound 587, N-((6-(2-(1H-pyrazol-1-yl)ethyl)-5-methoxy-1H-indol-2-yl)methyl)-1-methylcyclopropane-1-carboxamide]"
12,814,"O=C(NCc1cc2cc(Cl)c(OCc3ccon3)cc2[nH]1)C1CC(F)(F)C1 [Compound 491, N-((5-chloro-6-(isoxazol-3-ylmethoxy)-1H-indol-2-yl)methyl)-3,3-difluorocyclobutane-1-carboxamide]"
13,243,"O=C(NCc1cc2cc(F)c(OCc3cscn3)cc2[nH]1)C1CCO1 (stereo not drawn) [Compound 264, N-((5-fluoro-6-(thiazol-4-ylmethoxy)-1H-indol-2-yl)methyl)oxetane-2-carboxamide]"
14,991,"O=C(NCc1cc2cc(Cl)c(OCc3cscn3)cc2[nH]1)N1CCC1CO (racemic) [Compound 365, (S)-N-((5-chloro-6-(thiazol-4-ylmethoxy)-1H-indol-2-yl)methyl)-2-(hydroxymethyl)azetidine-1-carboxamide and (R)-N-((5-chloro-6-(thiazol-4-ylmethoxy)-1H-indol-2-yl)methyl)-2-(hydroxymethyl)azetidine-1-carboxamide]"
15,327,"Cc1cc(COc2cc3[nH]c(CNC(=O)C45CC(CO4)C5)cc3cc2Cl)on1 [Compound 301, N-((5-chloro-6-((3-methylisoxazol-5-yl)methoxy)-1H-indol-2-yl)methyl)-2-oxabicyclo[2.1.1]hexane-1-carboxamide]"
16,142,"O=C(NCc1cc2cc(Cl)c(OCc3cscn3)cc2[nH]1)[C@H]1CCCO1 [Compound 266, (R)-N-((5-chloro-6-(thiazol-4-ylmethoxy)-1H-indol-2-yl)methyl)tetrahydrofuran-2-carboxamide]"
17,> 8240,"O=C(NCc1cc2cc(Cl)c(OCc3cscn3)cc2[nH]1)C1CC2(CCC2)C1 [Compound 557, N-((5-chloro-6-(thiazol-4-ylmethoxy)-1H-indol-2-yl)methyl)spiro[3.3]heptane-2-carboxamide]"

row,IC50 [nM],Structure (SMILES)
1,1560,"CCc1cc2cc(CNC(=O)C3(C)CC3)[nH]c2cc1OCc1cscn1 [Compound 202, N-((5-ethyl-6-(thiazol-4-ylmethoxy)-1H-indol-2-yl)methyl)-1-methylcyclopropane-1-carboxamide]"
2,159,"CC(=O)NCc1cc2cc(Cl)c(OCCOC(F)(F)F)cc2[nH]1 [Compound 338, N-((5-chloro-6-(2-(trifluoromethoxy)ethoxy)-1H-indol-2-yl)methyl)acetamide]"
3,375,"CO[C@H](C)C(=O)NCc1cc2cc(Cl)c(OCc3cc(C)no3)cc2[nH]1 [Compound 314, (R)-N-((5-chloro-6-((3-methylisoxazol-5-yl)methoxy)-1H-indol-2-yl)methyl)-2-methoxypropanamide]"
4,545,"CC(=O)NCc1cc2cc(F)c(OCc3cocn3)cc2[nH]1 [Compound 224, N-((5-fluoro-6-(oxazol-4-ylmethoxy)-1H-indol-2-yl)methyl)acetamide]"
5,286,"Cc1cc(COc2cc3[nH]c(CNC(=O)C4(C(F)F)CC4)cc3cc2Cl)on1 [Compound 565, N-((5-chloro-6-((3-methylisoxazol-5-yl)methoxy)-1H-indol-2-yl)methyl)-1-(difluoromethyl)cyclopropane-1-carboxamide]"
6,226,"Cc1nc(COc2cc3[nH]c(CNC(=O)C4(C)CC4)cc3cc2Cl)no1 [Compound 318, N-((5-chloro-6-((5-methyl-1,2,4-oxadiazol-3-yl)methoxy)-1H-indol-2-yl)methyl)-1-methylcyclopropane-1-carboxamide]"
7,633,"Cc1cc(COc2cc3[nH]c(CNC(=O)C4OCCC4(F)F)cc3cc2Cl)on1 (stereo not drawn) [Compound 306, N-((5-chloro-6-((3-methylisoxazol-5-yl)methoxy)-1H-indol-2-yl)methyl)-3,3-difluorotetrahydrofuran-2-carboxamide]"
8,814,"Cc1cc(COc2cc3[nH]c(CNC(=O)[C@@H]4COCCO4)cc3cc2Cl)on1 [Compound 303, (S)-N-((5-chloro-6-((3-methylisoxazol-5-yl)methoxy)-1H-indol-2-yl)methyl)-1,4-dioxane-2-carboxamide]"
9,123,"O=C(NCc1cc2cc(Cl)c(OCc3cscn3)cc2[nH]1)[C@@H]1C[C@@H]1F [Compound 542, (1S,2S)-N-((5-chloro-6-(thiazol-4-ylmethoxy)-1H-indol-2-yl)methyl)-2-fluorocyclopropane-1-carboxamide]"
10,1570,"C[C@H]1CCCN1C(=O)NCc1cc2cc(F)c(OCc3ccon3)cc2[nH]1 [Compound 384, (S)-N-((5-fluoro-6-(isoxazol-3-ylmethoxy)-1H-indol-2-yl)methyl)-2-methylpyrrolidine-1-carboxamide]"
11,490,"CC1CCCN1C(=O)NCc1cc2cc(Cl)c(OCc3ccon3)cc2[nH]1 (stereo not drawn) [Compound 86, N-((5-chloro-6-(isoxazol-3-ylmethoxy)-1H-indol-2-yl)methyl)-2-methylpyrrolidine-1-carboxamide]"
12,133,"CC(F)(F)C(=O)NCc1cc2cc(Cl)c(OCc3cscn3)cc2[nH]1 [Compound 435, N-((5-chloro-6-(thiazol-4-ylmethoxy)-1H-indol-2-yl)methyl)-2,2-difluoropropanamide]"
13,859,"CC(=O)NCc1cc2c(F)cc(OCc3ccon3)cc2[nH]1 [Compound 453, N-((4-fluoro-6-(isoxazol-3-ylmethoxy)-1H-indol-2-yl)methyl)acetamide]"
14,2930,"CC(=O)NCc1cc2ccc(OCc3cc(C)no3)cc2[nH]1 [Compound 349, N-((6-((3-methylisoxazol-5-yl)methoxy)-1H-indol-2-yl)methyl)acetamide]"
15,606,"Cc1cc(COc2cc3[nH]c(CNC(=O)[C@H]4C[C@@H](O)C4)cc3cc2Cl)on1 [Compound 253, (1S,3S)-N-((5-chloro-6-((3-methylisoxazol-5-yl)methoxy)-1H-indol-2-yl)methyl)-3-hydroxycyclobutane-1-carboxamide]"
16,164,"Cc1cc(COc2cc3[nH]c(CNC(=O)NC4CC4)cc3cc2Cl)on1 [Compound 636, 1-((5-chloro-6-((3-methylisoxazol-5-yl)methoxy)-1H-indol-2-yl)methyl)-3-cyclopropylurea]"
